According to the NIST ThermoML archive (doi:10.1021/je0301040):

Assay: xn = mol fraction of the nth substance listed

FC(Cl)(Cl)Cl [trichlorofluoromethane] + FC(F)Cl
Settings	mass density [kg/m3]
298.15 K, 27634 kPa, Liquid, Pycnometric method, x1 = 0.8336	1504
298.15 K, 35295 kPa, Liquid, Pycnometric method, x1 = 0.8336	1518.86
298.15 K, 42224 kPa, Liquid, Pycnometric method, x1 = 0.8336	1531.13
298.15 K, 56475 kPa, Liquid, Pycnometric method, x1 = 0.8336	1554.44
298.15 K, 67870 kPa, Liquid, Pycnometric method, x1 = 0.8336	1570.81
305.99 K, 2209.4 kPa, Liquid, isochoric method, x1 = 0.832	1419.96
305.99 K, 2209.7 kPa, Liquid, isochoric method, x1 = 0.832	1419.96
308.99 K, 4508.6 kPa, Liquid, isochoric method, x1 = 0.832	1419.67
311.99 K, 6798.4 kPa, Liquid, isochoric method, x1 = 0.832	1419.39
311.99 K, 6800.1 kPa, Liquid, isochoric method, x1 = 0.832	1419.39
319.98 K, 1419.4 kPa, Liquid, Pycnometric method, x1 = 0.8336	1381.39
319.98 K, 2419.9 kPa, Liquid, Pycnometric method, x1 = 0.8336	1385.12
319.99 K, 690.7 kPa, Liquid, Pycnometric method, x1 = 0.8336	1378.66
319.99 K, 1087.6 kPa, Liquid, Pycnometric method, x1 = 0.8336	1380.16
319.99 K, 1721.1 kPa, Liquid, Pycnometric method, x1 = 0.8336	1382.53
319.99 K, 2054.4 kPa, Liquid, Pycnometric method, x1 = 0.8336	1383.74
319.99 K, 2726 kPa, Liquid, Pycnometric method, x1 = 0.8336	1386.19
319.99 K, 3165.8 kPa, Liquid, Pycnometric method, x1 = 0.8336	1387.81
319.99 K, 3805.2 kPa, Liquid, Pycnometric method, x1 = 0.8336	1390.08
319.99 K, 7368.4 kPa, Liquid, Pycnometric method, x1 = 0.8336	1402.12
319.99 K, 13993 kPa, Liquid, Pycnometric method, x1 = 0.8336	1422.16
319.99 K, 20936 kPa, Liquid, Pycnometric method, x1 = 0.8336	1440.83
319.99 K, 27630 kPa, Liquid, Pycnometric method, x1 = 0.8336	1456.91
319.99 K, 35180 kPa, Liquid, Pycnometric method, x1 = 0.8336	1473.5
319.99 K, 42218 kPa, Liquid, Pycnometric method, x1 = 0.8336	1486.74
319.99 K, 49603 kPa, Liquid, Pycnometric method, x1 = 0.8336	1501.44
319.99 K, 56549 kPa, Liquid, Pycnometric method, x1 = 0.8336	1513.51
319.99 K, 62595 kPa, Liquid, Pycnometric method, x1 = 0.8336	1523.41
319.99 K, 66514 kPa, Liquid, Pycnometric method, x1 = 0.8336	1534.42
325.99 K, 1939.3 kPa, Liquid, isochoric method, x1 = 0.832	1362.85
328.99 K, 3911.9 kPa, Liquid, isochoric method, x1 = 0.832	1362.59
331.99 K, 5879.8 kPa, Liquid, isochoric method, x1 = 0.832	1362.33
331.99 K, 5890.5 kPa, Liquid, isochoric method, x1 = 0.832	1362.33
349.98 K, 353.7 kPa, Gas, isochoric method, x1 = 0.832	131.816
349.98 K, 1087.3 kPa, Liquid, Pycnometric method, x1 = 0.8336	1291.23
349.98 K, 1418.4 kPa, Liquid, Pycnometric method, x1 = 0.8336	1293.05
349.98 K, 1769.1 kPa, Liquid, Pycnometric method, x1 = 0.8336	1294.97
349.98 K, 2081.3 kPa, Liquid, Pycnometric method, x1 = 0.8336	1296.63
349.98 K, 2408.9 kPa, Liquid, Pycnometric method, x1 = 0.8336	1298.31
349.98 K, 2747.4 kPa, Liquid, Pycnometric method, x1 = 0.8336	1300.08
349.98 K, 3091.9 kPa, Liquid, Pycnometric method, x1 = 0.8336	1301.88
349.98 K, 7457.3 kPa, Liquid, Pycnometric method, x1 = 0.8336	1322.34
349.98 K, 14287 kPa, Liquid, Pycnometric method, x1 = 0.8336	1349.36
349.98 K, 20907 kPa, Liquid, Pycnometric method, x1 = 0.8336	1371.66
349.98 K, 35596 kPa, Liquid, Pycnometric method, x1 = 0.8336	1412.26
349.98 K, 42532 kPa, Liquid, Pycnometric method, x1 = 0.8336	1428.61
349.98 K, 49571 kPa, Liquid, Pycnometric method, x1 = 0.8336	1443.89
349.98 K, 56566 kPa, Liquid, Pycnometric method, x1 = 0.8336	1457.8
349.98 K, 62677 kPa, Liquid, Pycnometric method, x1 = 0.8336	1469.23
349.99 K, 3577.6 kPa, Liquid, Pycnometric method, x1 = 0.8336	1304.32
349.99 K, 27703 kPa, Liquid, Pycnometric method, x1 = 0.8336	1391.72
349.99 K, 68231 kPa, Liquid, Pycnometric method, x1 = 0.8336	1479.1
351.98 K, 3607.1 kPa, Liquid, isochoric method, x1 = 0.832	1298.78
354.98 K, 5239.3 kPa, Liquid, isochoric method, x1 = 0.832	1298.54
357.98 K, 6868 kPa, Liquid, isochoric method, x1 = 0.832	1298.31
357.98 K, 6868.5 kPa, Liquid, isochoric method, x1 = 0.832	1298.31
357.98 K, 6872.5 kPa, Liquid, isochoric method, x1 = 0.832	1298.31
357.98 K, 6876.5 kPa, Liquid, isochoric method, x1 = 0.832	1298.31
374.97 K, 140.1 kPa, Fluid (supercritical or subcritical phases), Burnett expansion method, x1 = 0.832	5.9076
374.97 K, 155.55 kPa, Fluid (supercritical or subcritical phases), Burnett expansion method, x1 = 0.832	6.5788
374.97 K, 572.06 kPa, Fluid (supercritical or subcritical phases), Burnett expansion method, x1 = 0.832	25.934
374.97 K, 705.75 kPa, Fluid (supercritical or subcritical phases), Burnett expansion method, x1 = 0.832	32.8139
374.97 K, 712.23 kPa, Fluid (supercritical or subcritical phases), Burnett expansion method, x1 = 0.832	33.1519
374.97 K, 775.25 kPa, Fluid (supercritical or subcritical phases), Burnett expansion method, x1 = 0.832	36.5414
374.97 K, 2140.4 kPa, Liquid, Pycnometric method, x1 = 0.8336	1209.34
374.97 K, 2454.5 kPa, Liquid, Pycnometric method, x1 = 0.8336	1211.8
374.97 K, 2781.1 kPa, Liquid, Pycnometric method, x1 = 0.8336	1214.3
